ChEMBL document CHEMBL1159182, “SAR of cocaine: further exploration of structural variations at the C-2 center provides compounds of subnanomolar binding potency” (Bioorg Med Chem Lett, 1993)
Several values for one entry are separate records, joined by “and”; a condition that tells them apart may be missing. Equal entries are not always repeated.

How the values were obtained:
[1] = target: T1, Sodium-dependent dopamine transporter (Homo sapiens, UniProt Q01959); assay: Displacement of [3H]mazindol from dopamine transporter
[2] = target: T1, Sodium-dependent dopamine transporter; assay: Inhibitory concentration against [3H]dopamine uptake; format: functional
[3] = target: T1, Sodium-dependent dopamine transporter; assay: Ability to displace [3H]-Mazindol from dopamine receptor
[4] = target: T1, Sodium-dependent dopamine transporter; assay: Ability to displace [3H]mazindol to dopamine receptor; not being isolated
[5] = target: T1, Sodium-dependent dopamine transporter; assay: Inhibitory concentration required for [3H]dopamine uptake; not being isolated; format: functional
[6] = target: T1, Sodium-dependent dopamine transporter; assay: Ability to displace [3H]mazindol from dopamine transporter
[7] = target: T1, Sodium-dependent dopamine transporter; assay: Binding constant for [3H]dopamine uptake was calculated from the Cheng-Prusoff relationship
[8] = target: T1, Sodium-dependent dopamine transporter; assay: Binding constant for the ability to displace [3H]mazindol to dopamine receptor was calculated from the Cheng-Prusoff relationship

T1 sequence (Q01959 whole entry): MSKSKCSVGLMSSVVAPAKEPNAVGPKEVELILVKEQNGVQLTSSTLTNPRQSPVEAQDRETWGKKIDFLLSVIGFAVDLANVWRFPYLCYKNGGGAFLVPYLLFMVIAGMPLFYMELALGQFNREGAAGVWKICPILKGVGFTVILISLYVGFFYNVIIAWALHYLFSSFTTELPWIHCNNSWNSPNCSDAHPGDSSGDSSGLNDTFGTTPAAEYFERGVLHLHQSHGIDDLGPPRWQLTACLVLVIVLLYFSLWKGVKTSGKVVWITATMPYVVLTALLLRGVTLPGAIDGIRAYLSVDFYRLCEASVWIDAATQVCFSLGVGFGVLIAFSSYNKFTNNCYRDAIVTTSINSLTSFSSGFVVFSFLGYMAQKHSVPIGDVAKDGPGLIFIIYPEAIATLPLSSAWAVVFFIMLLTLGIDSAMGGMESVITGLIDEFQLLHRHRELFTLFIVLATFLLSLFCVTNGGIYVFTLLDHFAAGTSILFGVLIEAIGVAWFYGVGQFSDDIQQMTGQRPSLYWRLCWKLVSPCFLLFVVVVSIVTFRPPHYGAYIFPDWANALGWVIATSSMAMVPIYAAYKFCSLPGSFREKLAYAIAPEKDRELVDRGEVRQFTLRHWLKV

Structure (SMILES): CN1C2CCC1[C@H](/C=C/Cl)[C@@H](c1ccc(Cl)cc1)C2 (stereo partly specified)
- IC50 [1]: 24 nM and 18 nM
- IC50 [2]: 19 nM and 16 nM

Structure (SMILES): CC[C@@H]1C2CCC(C[C@@H]1c1ccc(Cl)cc1)N2C (stereo partly specified)
- IC50 [1]: 3.5 nM
- IC50 [2]: 2.6 nM

Structure (SMILES): CN1C2CCC1[C@@H]([C@@H](O)C(F)(F)F)[C@@H](c1ccc(Cl)cc1)C2 (stereo partly specified)
- IC50 [1]: 9.2 nM
- IC50 [2]: 10.5 nM

Structure (SMILES): C=C[C@@H]1C2CCC(C[C@@H]1c1ccc(Cl)cc1)N2C (stereo partly specified)
- IC50 [3]: 1.2 nM
- IC50 [2]: 2.8 nM

Structure (SMILES): CN1C2CCC1[C@@H](C(=O)C(F)(F)F)[C@@H](c1ccc(Cl)cc1)C2 (stereo partly specified)
- IC50 [4]: not isolated
- IC50 [5]: not isolated

Structure (SMILES): CN1C2CCC1[C@H](C(=O)C(F)(F)F)[C@@H](c1ccc(Cl)cc1)C2 (stereo partly specified)
- IC50 [1]: 1190 nM
- IC50 [2]: 377 nM

Structure (SMILES): CN1C2CCC1[C@@H]([C@H](O)C(F)(F)F)[C@@H](c1ccc(Cl)cc1)C2 (stereo partly specified)
- IC50 [4]: not isolated
- IC50 [5]: not isolated

Structure (SMILES): COC(=O)C1C2CC[C@H](C[C@@H]1c1ccc(Cl)cc1)N2C (stereo partly specified)
- IC50 [2]: 3.2 nM
- IC50 [6]: 1.7 nM

Structure (SMILES): CN1C2CCC1[C@@H](/C=C/Cl)[C@@H](c1ccc(Cl)cc1)C2 (stereo in doubt; 4)
- IC50 [1]: 0.73 nM
- IC50 [2]: 1.3 nM

Structure (SMILES): CN1C2CCC1[C@@H](/C=C/Cl)[C@@H](c1ccc(Cl)cc1)C2 (stereo in doubt; 5)
- IC50 [1]: 0.36 nM
- IC50 [2]: 0.99 nM
- Ki [7]: 0.88 nM
- Ki [8]: 0.22 nM

Structure (SMILES): CN1C2CCC1[C@H](C(O)C(F)(F)F)[C@@H](c1ccc(Cl)cc1)C2 (stereo in doubt; 12)
- IC50 [1]: 166 nM
- IC50 [2]: 125 nM

Structure (SMILES): CN1C2CCC1[C@H](C(O)C(F)(F)F)[C@@H](c1ccc(Cl)cc1)C2 (stereo in doubt; 13)
- IC50 [1]: 1100 nM
- IC50 [2]: 525 nM
